According to patent publication US20160194358A1, “LINEAR PEPTIDE ANTIBIOTCS” (priority 2013, published 2016):
≈ marks a conversion by molar mass, not a printed value. Where two headings read alike, the source gives them in different places. *1 amine or outer side, *2 acyl side, *3 side chain or, on linkers, in order; H or OH if unused. Where a SMILES comes first, the peptide text is derived from it. [ ]: non-standard residue; d: D form. The star is where a group is joined. boroAla((+)-pinanediol) = C[C@H](N*)B1O[C@@H]2C[C@@H]3C[C@@H](C3(C)C)[C@]2(C)O1; Biphenylcarbonyl(4'-Bu) = CCCCc1ccc(-c2ccc(C(=O)*)cc2)cc1; Benzoyl(4-(4-Cl-Ph)) = O=C(c1ccc(-c2ccc(Cl)cc2)cc1)*; NH(2-(2-pyridyl)ethyl) = c1ccc(CCN*)nc1; X14 = O=C(c1ccc(Oc2ccc(Cl)cc2)cc1)*; X1 = C[C@H](N[*:1])C(=O)C(=O)[*:2]; X12 = C[C@H](N*)C(=O)c1nc2ccccc2o1; X15 = Cc1nnc(C(=O)[C@H](C)N*)o1; X3 = CCCCc1ccc(C2CCN(*)CC2)cc1; X2 = C[C@H](N*)C(=O)c1ncco1; Decanoyl = CCCCCCCCCC(=O)*; Dab = NCC[C@H](N)C(=O)O; Dap = NC[C@H](N)C(=O)O; CO = O=C([*:1])[*:2]; CF3 = FC(F)(F)*; NHcPr = C1CC1N*; Sar = CNCC(=O)O; CH2Cl = ClC*

Experiments:
[1] = system: methicillin resistant Staphylococcus aureus (MRSA) strain USA300 (NRS384); conditions: MRSA USA300 (NRS384), 35° C., 22 hours
In short: (§1)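 CLSI broth microdilution in cation-adjusted Mueller Hinton Broth with 0.002% Tween-80, two-fold dilutions starting at 64 μg/ml.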

[2] = system: Escherichia coli strain MC4100 IMP-4213, which harbors an LptD mutation; conditions: E. coli MC4100 IMP-4213, 35° C., 22 hours
In short: as §1

S. aureus SPase = S. aureus SPase (Staphylococcus aureus, UniProt P0A070); test: biochemical; conditions: IC 50 (nM) S. aureus, 20 μM substrate, 10 minutes preincubation
Sequence of S. aureus SPase (P0A070 whole entry): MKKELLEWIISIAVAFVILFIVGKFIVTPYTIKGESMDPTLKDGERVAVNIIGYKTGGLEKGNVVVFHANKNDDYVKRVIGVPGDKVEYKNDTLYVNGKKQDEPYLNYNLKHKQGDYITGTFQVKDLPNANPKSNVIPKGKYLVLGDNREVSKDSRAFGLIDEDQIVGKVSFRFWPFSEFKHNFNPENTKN
Experimental: Full length His-tagged S. aureus SPase protein was expressed similarly from E. coli BL21(DE3) containing the plasmid pCDF1-SaSpsB and purified similarly to the E. coli protein with the following exceptions. SPase protein was solubilized using 300 mM NaCl, 20 mM Tris pH 8.06, 5 mM Imidazole, 10% glycerol, 1% Triton X-100, prior to purification in Ni-NTA Superflow resin and resin bound protein was washed in a similar buffer containing 1% Elugent in place of Triton X-100 prior to protein eluted in wash buffer supplemented with 300 mM imidazole. […] All protein concentrations were determined by BCA assay.
(§2) Signal peptidase enzyme activity of the above proteins was measured using two fluorogenic peptide substrates (decanoyl-LSSPAYNO2A ? ADKabzPD and decanoyl-LTPTAYNO2A ? ASKKabzDD), where abz is the fluorescence donor 2-aminobenzamide, YNO2 is the fluorescence acceptor 3-nitrotyrosine, and the cleavage site is indicated with an arrow. Enzyme mix solution was prepared by diluting 2.5 nM of Escherichia coli or Staphylococcus aureus SPase protein into reaction buffers consisting of 20 mM PO4 pH 7.4, 100 mM NaCl, and 1% Elugent™ or octyl phenoxypolyethoxylethanol detergent at a concentration of 0.25% or 0.0625%. Reactions were initiated by the addition of substrate to a final concentration of 20 μM. Reaction progress was monitored by measuring the increase in fluorescence signal (excitation at 314 nm, emission at 416 nm) using a SpectraMax M2 fluorescence microplate reader. To determine IC50 values of test compounds, compound stock solutions were prepared in DMSO at a concentration of 1 mM. Three-folder serial dilutions of test compounds, starting at 10 μM, were prepared in enzyme mix solution and incubated at room temperature for 10 minutes. Following this incubation, fluorogenic substrate was added to a final concentration of 20 μM and the increase in fluorescence, corresponding to substrate cleavage, was monitored continuously at room temperature for 1 hour. Initial reaction rates were calculated based on the rate of increase in fluorescence during the reaction. Reaction rates were plotted as a function of compound concentration, and IC50 values are determined nonlinear regression analysis (SoftMaxPro 5.4, Molecular Devices™) of the sigmoidal dose-response curve.

E. coli SPase = biological target: T1, E. coli SPase (Escherichia coli, UniProt P00803); test: Biochemical SPase activity assay, fluorogenic peptide substrate, E. coli enzyme; conditions: 20 μM substrate, 10 minutes preincubation, read-out: IC 50 (nM) E. coli
T1 construct: Full length His-tagged E. coli SPase proteins; His; made in house; host or cells: E. coli BL21(DE3)
T1 sequence (P00803 whole entry): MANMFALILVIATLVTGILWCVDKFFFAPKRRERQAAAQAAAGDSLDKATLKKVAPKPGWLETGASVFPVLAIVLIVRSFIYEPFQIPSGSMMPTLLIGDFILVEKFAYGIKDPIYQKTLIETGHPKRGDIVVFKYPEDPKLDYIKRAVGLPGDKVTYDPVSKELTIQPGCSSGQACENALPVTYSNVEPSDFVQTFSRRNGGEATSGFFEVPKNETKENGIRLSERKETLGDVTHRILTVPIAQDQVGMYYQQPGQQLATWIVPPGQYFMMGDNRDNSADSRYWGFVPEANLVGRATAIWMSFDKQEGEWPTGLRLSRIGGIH
Experimental: Full length His-tagged E. coli SPase proteins were expressed in E. coli BL21(DE3) containing the plasmid pET23-lepB. Briefly, saturated overnight cultures grown in 20 ml of Luria-Bertani medium supplemented with ampicillin were subcultures into 1.5 L of Luria-Bertani, and shaken at 37° C. until an optical density at 600 nm of 0.4-0.5 was achieved.
as §2

Structure (SMILES)	MIC (μg/mL) S. aureus ([1]; listed as 207 P1) [µg/mL]	MIC (μg/mL) E. coli ([2]; listed as 207 P1) [µg/mL]	IC50 (S. aureus SPase) [nM]	IC50 (E. coli SPase) [nM]	MIC (μg/mL) S. aureus [1] [µg/mL]	MIC (μg/mL) E. coli [2] [µg/mL]	MIC (μg/mL) S. aureus ([1]; listed as 203 P1) [µg/mL]	MIC (μg/mL) E. coli ([2]; listed as 203 P1) [µg/mL]
CCCCc1ccc(-c2ccc(C(=O)N[C@@H](CCN)C(=O)N[C@H](C(=O)N[C@@H](C)C(=O)N[C@@H](CCCCN)C(=O)N[C@@H](C)C(=O)C3(C)CO3)[C@@H](C)O)cc2)cc1 (single isomer, unassigned) [Compound 207 P1]	5.7 (≈ 7.44 µM)	8 (≈ 10.4 µM)	1400	1800	–	–	–	–
CCCCc1ccc(C2CCN(C(=O)N[C@@H](CCCCN)C(=O)N[C@H](C(=O)N[C@@H](C)C(=O)N[C@@H](CCCCN)C(=O)N[C@@H](C)B3O[C@@H]4C[C@@H]5C[C@@H](C5(C)C)[C@]4(C)O3)[C@@H](C)O)CC2)cc1 [Compound 127] ({X3-CO}-KTAK-{boroAla((+)-pinanediol)})	–	–	210	64	2 (≈ 2.23 µM)	32 (≈ 35.8 µM)	–	–
CCCCc1ccc(-c2ccc(C(=O)N[C@@H](CCN)C(=O)N[C@H](C(=O)N[C@@H](C)C(=O)N[C@@H](CCCCN)C(=O)N[C@@H](C)C(=O)CCl)[C@@H](C)O)cc2)cc1 [Compound 211] ({Biphenylcarbonyl(4'-Bu)}-[Dab]TAKA-CH2Cl)	–	–	390	380	4 (≈ 5.27 µM)	16 (≈ 21.1 µM)	–	–
CCCCc1ccc(-c2ccc(C(=O)N[C@@H](CCN)C(=O)N[C@H](C(=O)N[C@@H](C)C(=O)N[C@@H](CCCCN)C(=O)N[C@@H](C)C(=O)C3OC3C)[C@@H](C)O)cc2)cc1 (single isomer, unassigned) [Compound 203 P1]	–	–	95	440	–	–	1.2 (≈ 1.57 µM)	11 (≈ 14.4 µM)
CCCCCCCCCC(=O)N[C@@H](CCN)C(=O)N[C@H](C(=O)N[C@@H](C)C(=O)N[C@@H](CCCCN)C(=O)N[C@@H](C)B1O[C@@H]2C[C@@H]3C[C@@H](C3(C)C)[C@]2(C)O1)[C@@H](C)O [Compound 117] (Decanoyl-[Dab]TAK-{boroAla((+)-pinanediol)})	–	–	150	20	2 (≈ 2.57 µM)	8 (≈ 10.3 µM)	–	–
C[C@H](NC(=O)[C@@H](NC(=O)[C@H](CN)NC(=O)c1ccc(-c2ccc(Cl)cc2)cc1)[C@@H](C)O)C(=O)N[C@@H](CCCCN)C(=O)N[C@@H](C)C(=O)C(=O)NC1CC1 [Compound 109] ({Benzoyl(4-(4-Cl-Ph))}-[Dap]TAK[X1]-NHcPr)	–	–	2000	820	32 (≈ 42.3 µM)	32 (≈ 42.3 µM)	–	–
CCCCc1ccc(-c2ccc(C(=O)N[C@@H](CCN)C(=O)N[C@H](C(=O)N[C@@H](C)C(=O)N[C@@H](CCCCN)C(=O)N[C@@H](C)C(=O)C(F)(F)F)[C@@H](C)O)cc2)cc1 [Compound 210] ({Biphenylcarbonyl(4'-Bu)}-[Dab]TAKA-CF3)	–	–	2300	260	11 (≈ 14.1 µM)	4 (≈ 5.14 µM)	–	–
C[C@H](NC(=O)[C@@H](NC(=O)[C@H](CN)NC(=O)c1ccc(-c2ccc(Cl)cc2)cc1)[C@@H](C)O)C(=O)N[C@@H](CCCCN)C(=O)N[C@@H](C)C(=O)c1ncco1 [Compound 212] ({Benzoyl(4-(4-Cl-Ph))}-[Dap]TAK-X2)	–	–	2600	34	45 (≈ 60.7 µM)	64 (≈ 86.3 µM)	–	–
CCCCCCCCCCCCCC(=O)N[C@@H](CCCCN)C(=O)N[C@@H](C)C(=O)N[C@@H](CCCCN)C(=O)N[C@@H](C)B1O[C@@H]2C[C@@H]3C[C@@H](C3(C)C)[C@]2(C)O1 [Compound 123]	–	–	7800	11000	2 (≈ 2.63 µM)	4 (≈ 5.26 µM)	–	–
C[C@H](NC(=O)[C@H](CCCCN)NC(=O)[C@H](C)NC(=O)[C@@H](NC(=O)[C@H](CN)NC(=O)c1ccc(Oc2ccc(Cl)cc2)cc1)[C@@H](C)O)B1O[C@@H]2C[C@@H]3C[C@@H](C3(C)C)[C@]2(C)O1 [Compound 129] (X14-[Dap]TAK-{boroAla((+)-pinanediol)})	–	–	120	3.6	2.8 (≈ 3.33 µM)	4 (≈ 4.76 µM)	–	–
C[C@H](NC(=O)[C@@H](NC(=O)[C@H](CN)NC(=O)c1ccc(-c2ccc(Cl)cc2)cc1)[C@@H](C)O)C(=O)N[C@@H](CCCCN)C(=O)N[C@@H](C)C(=O)C(=O)NCCc1ccccn1 [Compound 104] ({Benzoyl(4-(4-Cl-Ph))}-[Dap]TAK[X1]-{NH(2-(2-pyridyl)ethyl)})	–	–	840	950	64 (≈ 77.8 µM)	>64	–	–
COC(=O)CNC(=O)C(=O)[C@H](C)NC(=O)[C@H](CCCCN)NC(=O)[C@H](C)NC(=O)[C@@H](NC(=O)[C@H](CN)NC(=O)c1ccc(-c2ccc(Cl)cc2)cc1)[C@@H](C)O [Compound 111] ({Benzoyl(4-(4-Cl-Ph))}-[Dap]TAK[X1]G-OMe)	–	–	690	360	16 (≈ 20.3 µM)	16 (≈ 20.3 µM)	–	–
Cc1nnc(C(=O)[C@H](C)NC(=O)[C@H](CCCCN)NC(=O)[C@H](C)NC(=O)[C@H](CCCCN)NC(=O)[C@H](CN)NC(=O)c2ccc(-c3ccc(Cl)cc3)cc2)o1 [Compound 213] ({Benzoyl(4-(4-Cl-Ph))}-[Dap]KAK-X15)	–	–	> 10000	49	32 (≈ 40.9 µM)	64 (≈ 81.7 µM)	–	–
CC(=O)N[C@@H](CCN)C(=O)N[C@H](C(=O)N[C@@H](C)C(=O)N[C@@H](CCCCN)C(=O)N[C@@H](C)B1O[C@@H]2C[C@@H]3C[C@@H](C3(C)C)[C@]2(C)O1)[C@@H](C)O [Compound 113] (Ac-[Dab]TAK-{boroAla((+)-pinanediol)})	–	–	1200	5700	>64	>64	–	–
CCCCc1ccc(-c2ccc(C(=O)N[C@@H](CCN)C(=O)N(C)CC(=O)N[C@@H](C)C(=O)N[C@@H](CCCCN)C(=O)N[C@@H](C)B3O[C@@H]4C[C@@H]5C[C@@H](C5(C)C)[C@]4(C)O3)cc2)cc1 [Compound 124] ({Biphenylcarbonyl(4'-Bu)}-[Dab][Sar]AK-{boroAla((+)-pinanediol)})	–	–	2000	110	0.8 (≈ 0.964 µM)	0.6 (≈ 0.723 µM)	–	–
C[C@H](NC(=O)[C@@H](NC(=O)[C@H](CN)NC(=O)c1ccc(-c2ccc(Cl)cc2)cc1)[C@@H](C)O)C(=O)N[C@@H](CCCCN)C(=O)N[C@@H](C)C(=O)c1nc2ccccc2o1 [Compound 214] ({Benzoyl(4-(4-Cl-Ph))}-[Dap]TAK-X12)	–	–	630	180	64 (≈ 80.9 µM)	32 (≈ 40.4 µM)	–	–
